The target of this experiment is T1, hTRPV6 (Homo sapiens, UniProt Q9H1D0).
T1 sequence (Q9H1D0 1-765): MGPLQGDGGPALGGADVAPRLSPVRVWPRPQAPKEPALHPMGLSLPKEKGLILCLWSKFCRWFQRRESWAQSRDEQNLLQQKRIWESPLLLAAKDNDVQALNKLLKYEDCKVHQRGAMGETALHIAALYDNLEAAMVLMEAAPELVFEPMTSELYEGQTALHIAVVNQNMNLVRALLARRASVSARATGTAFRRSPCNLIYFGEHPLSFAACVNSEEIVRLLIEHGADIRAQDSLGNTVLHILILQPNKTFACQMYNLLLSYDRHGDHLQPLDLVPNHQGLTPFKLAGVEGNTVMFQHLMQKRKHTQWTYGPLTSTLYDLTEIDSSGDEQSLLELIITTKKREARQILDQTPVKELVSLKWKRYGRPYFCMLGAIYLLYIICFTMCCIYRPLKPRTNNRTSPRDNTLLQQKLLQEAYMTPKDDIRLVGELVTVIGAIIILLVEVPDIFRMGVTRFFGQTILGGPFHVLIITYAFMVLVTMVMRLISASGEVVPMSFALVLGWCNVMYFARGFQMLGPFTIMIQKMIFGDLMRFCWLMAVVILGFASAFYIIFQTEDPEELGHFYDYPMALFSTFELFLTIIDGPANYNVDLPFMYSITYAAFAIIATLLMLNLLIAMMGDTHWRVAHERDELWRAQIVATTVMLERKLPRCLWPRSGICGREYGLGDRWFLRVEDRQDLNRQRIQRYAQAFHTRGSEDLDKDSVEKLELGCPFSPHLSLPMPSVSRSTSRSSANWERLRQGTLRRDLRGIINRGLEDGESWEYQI
In words: Patch clamp selectivity, hTRPV6. The format is cell-based. As for the experimental part: Data for TRPA1 inhibition and the selectivity of TRPA1 inhibition was obtained by this method for the compound of Formula (Ia) and included in Table 1 and Table 2. All currents were recorded in whole-cell configuration using EPC-9 and EPC-10 amplifiers and Patchmaster software (HEKA). […] The standard pipette solution consisted of 140 mM CsAsp, 10 mM EGTA, 10 mM HEPES, 2.27 mM MgCl2, 1.91 mM CaCl2, 4 mM MgATP, and 0.1-0.3 mM Na2GTP, with pH adjusted to 7.2 with CsOH. In addition, a solution containing 145 mM CsCl, 10 mM HEPES, 10 mM EGTA and 1 mM MgCl2 (pH 7.2 adjusted with CsOH) can be used. The standard bath solution contained 150 mM NaCl, 10 mM HEPES, 10 mM glucose, 4.5 mM KCl, 1 mM EGTA, 3 mM MgCl2, with pH adjusted to 7.4 with NaOH. In some instances, 2 mM CaCl2 was added in place of EGTA and the concentration of MgCl2 was reduced to 1 mM.
Data were collected either by continuous recordings at −60 mV or by applying voltage ramps from a holding potential of 0 mV every 4 s. […] Inward and outward currents were analyzed from the ramps at −80 and 80 mV, respectively. […]
Solutions were switched using a gravity-fed continuous focal perfusion system. […] Temperatures were confirmed using a thermistor (Warner Instruments, TA-29), with temperatures at the recorded cell estimated to be within +/−2° C. of those reported. […]

By IC50 is commonly meant the concentration that inhibits the measured activity by half. A high value points to lower potency. Regarding `C[C@H]1CCCN1c1ncc(-c2cccc(NC(=O)Cn3cnc4c3c(=O)n(C)c(=O)n4C)n2)cn1` [Formula (Ia)], the “Fold Selectivity Compared to TRPA1” value is listed as ~370 fold. The same molecule registered an IC50 (Voltage, Inward (−80 mV)) of 34 µM.

Source of the values: US20140158116A1, “INHIBITING TRPA1 FOR THE TREATMENT OF ASTHMA” (Cubist Pharmaceuticals, Inc., priority 2012, published 2014).
